Test results taken from the NIST ThermoML archive (doi:10.1016/j.jct.2013.08.033).
Numbers after ± are expanded uncertainties.

Key:
[1] = refractive index (Na D-line) (dimensionless); conditions: 298.15 K; 101.33 kPa; Liquid; Standard Abbe refractometry
[2] = 101 kPa, Liquid; for mass density: Pycnometric method; for speed of sound: Pulse-echo method
[3] = molar heat capacity at constant pressure; conditions: 101.33 kPa, Liquid, Small sample (50 mg) DSC
[4] = xn = mol fraction of the nth substance listed; conditions: 101 kPa, Liquid; for mass density: Pycnometric method; for speed of sound: Pulse-echo method

Work on `CCC(O)CO` (stereo not drawn) [1,2-butanediol] yielded a refractive index [1] of 1.4364 ± 0.0008, a mass density ([2]; 293.15 K) of 1002.32 ± 0.57 kg/m3 and a speed of sound ([2]; 298.15 K) of 1449.9 ± 1.6 m/s. For the same compound, the mass density ([2]; 298.15 K) was 998.59 ± 0.58 kg/m3, the mass density ([2]; 303.15 K) was 994.78 ± 0.59 kg/m3 and the mass density ([2]; 308.15 K) was 990.97 ± 0.6 kg/m3. For the same compound, the “molar heat capacity at constant pressure” value ([3]; 283.15 K) was 222.86 ± 9.5 J/K/mol, the “molar heat capacity at constant pressure” value ([3]; 288.15 K) was 225.62 ± 9.6 J/K/mol and the “molar heat capacity at constant pressure” value ([3]; 293.15 K) was 228.35 ± 9.7 J/K/mol. The “molar heat capacity at constant pressure” value ([3]; 298.15 K) was 231.06 ± 9.8 J/K/mol, the “molar heat capacity at constant pressure” value ([3]; 303.15 K) was 233.74 ± 9.9 J/K/mol and the “molar heat capacity at constant pressure” value ([3]; 308.15 K) was 236.4 ± 10 J/K/mol. The “molar heat capacity at constant pressure” value ([3]; 313.15 K) was 239.05 ± 10 J/K/mol and the “molar heat capacity at constant pressure” value ([3]; 318.15 K) was 241.66 ± 10 J/K/mol.

Work on `CCC(O)CO` (stereo not drawn) [1,2-butanediol] + CCCCO yielded a mass density ([4]; 293.15 K, x1 = 0.05027) of 819.25 ± 0.3 kg/m3, a mass density ([4]; 293.15 K, x1 = 0.1001) of 828.73 ± 0.31 kg/m3 and a mass density ([4]; 293.15 K, x1 = 0.1501) of 838.28 ± 0.32 kg/m3. It also gave a mass density ([4]; 293.15 K, x1 = 0.3) of 867.03 ± 0.35 kg/m3, a mass density ([4]; 293.15 K, x1 = 0.4004) of 886.32 ± 0.37 kg/m3 and a mass density ([4]; 293.15 K, x1 = 0.4994) of 905.4 ± 0.4 kg/m3. For the same compound, the mass density ([4]; 293.15 K, x1 = 0.6002) was 924.85 ± 0.42 kg/m3, the mass density ([4]; 293.15 K, x1 = 0.7001) was 944.16 ± 0.46 kg/m3 and the mass density ([4]; 293.15 K, x1 = 0.85) was 973.21 ± 0.51 kg/m3. The mass density ([4]; 293.15 K, x1 = 0.8998) was 982.93 ± 0.53 kg/m3, the mass density ([4]; 293.15 K, x1 = 0.9498) was 992.62 ± 0.55 kg/m3 and the mass density ([4]; 293.15 K, x1 = 1) was 1002.32 ± 0.57 kg/m3. The speed of sound ([4]; 298.15 K, x1 = 0.05027) was 1248.1 ± 1.4 m/s, the speed of sound ([4]; 298.15 K, x1 = 0.1001) was 1256.3 ± 1.4 m/s and the speed of sound ([4]; 298.15 K, x1 = 0.1501) was 1264.1 ± 1.4 m/s. The speed of sound ([4]; 298.15 K, x1 = 0.3) was 1289.6 ± 1.4 m/s, the speed of sound ([4]; 298.15 K, x1 = 0.4004) was 1307.8 ± 1.4 m/s and the speed of sound ([4]; 298.15 K, x1 = 0.4994) was 1327.2 ± 1.5 m/s. The speed of sound ([4]; 298.15 K, x1 = 0.6002) was 1348.3 ± 1.5 m/s, the speed of sound ([4]; 298.15 K, x1 = 0.7001) was 1371.1 ± 1.5 m/s and the speed of sound ([4]; 298.15 K, x1 = 0.85) was 1408.2 ± 1.6 m/s. For the same compound, the speed of sound ([4]; 298.15 K, x1 = 0.8998) was 1421.8 ± 1.6 m/s, the speed of sound ([4]; 298.15 K, x1 = 0.9498) was 1435.5 ± 1.6 m/s and the speed of sound ([4]; 298.15 K, x1 = 1) was 1449.9 ± 1.6 m/s. For the same compound, the mass density ([4]; 298.15 K, x1 = 0.05027) was 815.37 ± 0.31 kg/m3, the mass density ([4]; 298.15 K, x1 = 0.1001) was 824.84 ± 0.32 kg/m3 and the mass density ([4]; 298.15 K, x1 = 0.1501) was 834.4 ± 0.33 kg/m3. The mass density ([4]; 298.15 K, x1 = 0.3) was 863.1 ± 0.36 kg/m3, the mass density ([4]; 298.15 K, x1 = 0.4004) was 882.4 ± 0.38 kg/m3 and the mass density ([4]; 298.15 K, x1 = 0.4994) was 901.47 ± 0.41 kg/m3. The mass density ([4]; 298.15 K, x1 = 0.6002) was 920.95 ± 0.44 kg/m3, the mass density ([4]; 298.15 K, x1 = 0.7001) was 940.28 ± 0.47 kg/m3 and the mass density ([4]; 298.15 K, x1 = 0.85) was 969.42 ± 0.52 kg/m3. It also gave a mass density ([4]; 298.15 K, x1 = 0.8998) of 979.12 ± 0.54 kg/m3, a mass density ([4]; 298.15 K, x1 = 0.9498) of 988.87 ± 0.56 kg/m3 and a mass density ([4]; 298.15 K, x1 = 1) of 998.59 ± 0.58 kg/m3. For the same compound, the mass density ([4]; 303.15 K, x1 = 0.05027) was 811.5 ± 0.32 kg/m3, the mass density ([4]; 303.15 K, x1 = 0.1001) was 820.98 ± 0.33 kg/m3 and the mass density ([4]; 303.15 K, x1 = 0.1501) was 830.49 ± 0.34 kg/m3. For the same compound, the mass density ([4]; 303.15 K, x1 = 0.3) was 859.21 ± 0.37 kg/m3, the mass density ([4]; 303.15 K, x1 = 0.4004) was 878.47 ± 0.39 kg/m3 and the mass density ([4]; 303.15 K, x1 = 0.4994) was 897.58 ± 0.42 kg/m3. The mass density ([4]; 303.15 K, x1 = 0.6002) was 917.07 ± 0.45 kg/m3, the mass density ([4]; 303.15 K, x1 = 0.7001) was 936.42 ± 0.48 kg/m3 and the mass density ([4]; 303.15 K, x1 = 0.85) was 965.57 ± 0.53 kg/m3. For the same compound, the mass density ([4]; 303.15 K, x1 = 0.8998) was 975.25 ± 0.55 kg/m3, the mass density ([4]; 303.15 K, x1 = 0.9498) was 985.02 ± 0.57 kg/m3 and the mass density ([4]; 303.15 K, x1 = 1) was 994.78 ± 0.59 kg/m3. It also gave a mass density ([4]; 308.15 K, x1 = 0.05027) of 807.63 ± 0.33 kg/m3, a mass density ([4]; 308.15 K, x1 = 0.1001) of 817.06 ± 0.34 kg/m3 and a mass density ([4]; 308.15 K, x1 = 0.1501) of 826.61 ± 0.35 kg/m3. It also gave a mass density ([4]; 308.15 K, x1 = 0.3) of 855.24 ± 0.38 kg/m3, a mass density ([4]; 308.15 K, x1 = 0.4004) of 874.54 ± 0.41 kg/m3 and a mass density ([4]; 308.15 K, x1 = 0.4994) of 893.65 ± 0.43 kg/m3. It also gave a mass density ([4]; 308.15 K, x1 = 0.6002) of 913.17 ± 0.46 kg/m3, a mass density ([4]; 308.15 K, x1 = 0.7001) of 932.51 ± 0.49 kg/m3 and a mass density ([4]; 308.15 K, x1 = 0.85) of 961.69 ± 0.54 kg/m3. For the same compound, the mass density ([4]; 308.15 K, x1 = 0.8998) was 971.41 ± 0.56 kg/m3, the mass density ([4]; 308.15 K, x1 = 0.9498) was 981.19 ± 0.58 kg/m3 and the mass density ([4]; 308.15 K, x1 = 1) was 990.97 ± 0.6 kg/m3.

`CCCCO` [butan-1-ol] showed a refractive index [1] of 1.3972 ± 0.0008, a mass density ([2]; 293.15 K) of 809.65 ± 0.29 kg/m3 and a speed of sound ([2]; 298.15 K) of 1240.2 ± 1.4 m/s. The mass density ([2]; 298.15 K) was 805.81 ± 0.3 kg/m3, the mass density ([2]; 303.15 K) was 801.98 ± 0.31 kg/m3 and the mass density ([2]; 308.15 K) was 798.13 ± 0.32 kg/m3. For the same compound, the “molar heat capacity at constant pressure” value ([3]; 283.15 K) was 167.32 ± 7.1 J/K/mol, the “molar heat capacity at constant pressure” value ([3]; 288.15 K) was 170.35 ± 7.2 J/K/mol and the “molar heat capacity at constant pressure” value ([3]; 293.15 K) was 173.54 ± 7.4 J/K/mol. For the same compound, the “molar heat capacity at constant pressure” value ([3]; 298.15 K) was 176.9 ± 7.5 J/K/mol, the “molar heat capacity at constant pressure” value ([3]; 303.15 K) was 180.41 ± 7.7 J/K/mol and the “molar heat capacity at constant pressure” value ([3]; 308.15 K) was 184.09 ± 7.8 J/K/mol. For the same compound, the “molar heat capacity at constant pressure” value ([3]; 313.15 K) was 187.93 ± 8 J/K/mol and the “molar heat capacity at constant pressure” value ([3]; 318.15 K) was 191.93 ± 8.1 J/K/mol.

`CCCCO` [butan-1-ol] + CCC(O)CO gave a mass density ([4]; 293.15 K, x2 = 0) of 809.65 ± 0.29 kg/m3, a speed of sound ([4]; 298.15 K, x2 = 0) of 1240.2 ± 1.4 m/s and a mass density ([4]; 298.15 K, x2 = 0) of 805.81 ± 0.3 kg/m3. It also gave a mass density ([4]; 303.15 K, x2 = 0) of 801.98 ± 0.31 kg/m3 and a mass density ([4]; 308.15 K, x2 = 0) of 798.13 ± 0.32 kg/m3.
